# From US20120316199A1, “COMPOSITIONS AND METHODS FOR TREATING, CONTROLLING, REDUCING, OR AMELIORATING INFLAMMATORY PAIN” (priority 2011, published 2012)
# Values joined by “and” are separate entries in the source; they are usually repeats but may differ in a detail not shown here. Equal values may be shown once.
# Tests used:
# Type in all cases: in vivo, Rabbit (New Zealand)
# [1] = system: MPO activity in iris-ciliary body; assay: Myeloperoxidase (MPO) activity in iris-ciliary body, rabbit paracentesis model
# Experimental: (§1) Each rabbit was placed in a restraint device and tagged with the alphanumeric code. The formulations were instilled (50 μl) into the conjunctival sac of both eyes 180, 120, 90 and 30 min before the first paracentesis; then 15, 30, 90 min after the first paracentesis. To perform the first paracentesis the animals were anaesthetized by intravenous injection of 5 mg/kg Zoletil® (Virbac; 2.5 mg/kg tiletamine HCl and 2.5 mg/kg zolazepam HCl) and one drop of local anesthetic (Novesina®, Novartis) was administered to the eye. Anterior chamber paracentesis was performed with a 26 G needle attached to a tuberculin syringe; the needle was introduced into the anterior chamber through the cornea, taking care not to damage the tissues. Two hours after the first paracentesis, the animals were sacrificed with 0.4 ml Tanax® (Intervet International B.V.) and the second paracentesis was performed. About 100 μl of aqueous humor were removed at the second paracentesis. Aqueous humor was immediately split in four aliquots and stored at −80° C. until analysis. Then both eyes were enucleated and the iris-ciliary body was carefully excised, placed in polypropylene tubes, and stored at −80° C. until analysis.
# The activity of MPO was measured as previously described by Williams et al.[5] The iris-ciliary bodies were carefully dried, weighed and immersed in 1 ml of hexa-decyl-trimethyl-ammonium bromide solution. Then, the samples were sonicated for 10 sec on ice by a ultrasound homogenizer (HD 2070, Bandelin electronic), freeze-thawed three times, sonicated for 10 sec and centrifuged at 14,000 g for 10 min to remove cellular debris. An aliquot of the supernatant (40-200 μl) was diluted to 3 ml with the o-dianisidine 2HCl/H2O2 solution. The change in absorbance at 460 nm was continuously monitored for 5 min by a spectrophotometer (UV/Vis Spectrometer Lambda EZ 201; Perkin Elmer). The slope of the line (Δ/min) was determined for each sample and used to calculate the number of units of MPO in the tissue as follows:
# Values were expressed as units of MPO/g of tissue.
# (§2) Pupillary diameter, PGE2, protein, PMN, and MPO were expressed as mean±SEM. Statistical analysis was performed using one way ANOVA followed by a Newman-Keuls post hoc test. Clinical score was expressed as % of eyes and the statistical analysis was performed using Kruskal-Wallis followed by a Dunn post hoc test. P<0.05 was considered statistically significant in both cases. Prism 4 software (GraphPad Software, Inc.) was used for the analysis and graphs.
# [2] = system: protein concentration in the aqueous humor; assay: Protein measurement in aqueous humor, rabbit paracentesis model; details: 0.5% formulation, second paracentesis
# Experimental: as §1
# For protein concentration determination in the aqueous humor we used the Protein Quantification Kit (Fluka; Cat. No. 77371; Lot. No. 1303129). Five microliters of aqueous humor were diluted to 100 μl with water. Twenty microliters of samples and of standards were load into a 96-well plate and recorded in a plate layout. Samples were treated following the assay procedure described in the kit. A microplate reader (GDV, Italy; model DV 990 B/V6) set at 670 nm was used for making the calibration and analyzing the samples.
# as §2
# [3] = system: PGE2 in the aqueous humor; assay: Prostaglandin E2 (PGE2) measurement in aqueous humor, rabbit paracentesis model; details: 0.5% formulation
# Experimental: as §1
# For the quantitative determination of PGE2 in the aqueous humor we used the PGE2 Immunoassay kit (R&D Systems; Cat. No. KGE004; Lot. No. 240010). Eleven microliters or 16 μl of aqueous humor were diluted to 110 μl or 160 μl with the calibrator diluent solution provided with the kit. One hundred microliters of samples and of standards were load into a 96-well plate and recorded in a plate layout. Samples were treated following the assay procedure described in the kit. A microplate reader (GDV, Italy; model DV 990 B/V6) set at 450 nm (wavelength correction at 540 nm) was used for making the calibration and analyzing the samples.
# as §2
# pupillary diameter = assay: Pupillary diameter measurement, rabbit paracentesis model; details: 0.5% formulation
# [4] = system: leukocytes (PMN) in aqueous humor; assay: Leukocytes (PMN) measurement in aqueous humor, rabbit paracentesis model; details: 0.5% formulation; second paracentesis; group mean
# Experimental: as §1
# For the determination of the number of leukocytes we used a haernocytometer (Improved Neubauer Chamber; Bright-line, Hausser Scientific) and a Polyvar 2 microscope (Reichert-Jung).
# as §2
# [5] = system: iris and conjunctival vessels, anterior chamber; assay: Clinical evaluation by slit lamp (clinical score), rabbit paracentesis model; design: key to Clinical Score −180 min / Clinical Score −5 min / Clinical Score +115 min: 0=normal; 1=discrete dilatation of iris and conjunctival vessels; 2=moderate dilatation of iris and conjunctival vessels; 3=intense iridal hyperemia with flare in the anterior chamber; 4=intense iridal hyperemia with flare in the anterior chamber and presence of fibrinous exudates; details: 0.5% formulation
# [6] = 5 min before the first paracentesis, raw data per eye
# [7] = 5 min before the second paracentesis, raw data per eye
smiles,measurement,setting,value
"CCOC(=O)O[C@]1(C(=O)OCCl)CC[C@H]2[C@@H]3CCC4=CC(=O)C=C[C@]4(C)[C@H]3[C@@H](O)C[C@@]21C [LE, loteprednol etabonate]",MPO activity in iris-ciliary body,"[1]; 0.5% LE, individual samples collected after the second paracentesis",1.01 Unit/g
same,"MPO activity in iris-ciliary body, Mean","[1]; 0.5% formulation, after the second paracentesis, group mean",0.661 MPO Unit/g
same,"Protein level in aqueous humor, Mean",[2]; group mean,33.905 mg/mL
same,"Protein level in aqueous humor, raw data",[2]; per eye,36.14 mg/mL and 39.10 mg/mL and 34.69 mg/mL and 26.10 mg/mL and 26.30 mg/mL and 28.16 mg/mL and 40.90 mg/mL and 39.85 mg/mL
same,"PGE2 in aqueous humor, statistical significance versus CTR",[3]; p<0.05,statistically significant versus CTR
same,"PGE2 level in aqueous humor, Mean","[3]; second paracentesis, group mean",0.672 ng/mL
same,Pupillary diameter T2: −5 min,pupillary diameter; [6],6.0 mm and 6.5 mm
same,Pupillary diameter T3: +115 min,pupillary diameter; [7],4.5 mm and 5.0 mm and 5.5 mm and 6.0 mm
same,Pupillary diameter T1: −180 min,"pupillary diameter; basal, raw data per eye",6.0 mm and 6.5 mm
same,Mean (mm) Δ(T3 − T1) of pupillary diameter,"pupillary diameter; group mean, n=8 eyes",−0.9 mm
same,"PMN numbers in aqueous humor, Mean",[4],28.333 number/μl
same,Clinical Score −5 min,[5]; [6],0
same,Clinical Score +115 min,[5]; [7],2 and 1
same,Percentage of eyes with clinical score 1,"[5]; +115 min, N=8 eyes",75%
same,Percentage of eyes with clinical score 2,"[5]; +115 min, N=8 eyes",25%
same,Clinical Score −180 min,"[5]; basal, raw data per eye",0
same,"Clinical score, difference versus CTR (vehicle)","[5]; p<0.05, Kruskal-Wallis, Dunn",significant difference versus CTR
same,Percentage of eyes with clinical score 0,"[5]; −5 min, N=8 eyes",100%
same,Percentage of eyes with clinical score 0,"[5]; −180 min (basal), N=8 eyes",100%
